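96-well plates; 48 h exposure; 5 concentrations. Endpoints by linear interpolation between flanking doses. Not reached: highest tested concentration assigned. At the GI50, growth is halved.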 Calls of active or inactive are those of the source. Cut-off read from the data, not from the text of the source: active = GI50 up to about 1.1 µM and inactive = higher.
Key:
Experiment in all cases: growth of human tumour cells (NCI), 48 h
HCT-116 = test system: HCT-116
UACC-62 = test system: UACC-62
KM12 = test system: KM12
RPMI-8226 = test system: RPMI-8226
A549 = test system: A549
Hs-578T = test system: Hs-578T
NCI/ADR-RES = test system: NCI/ADR-RES
NCI-H226 = test system: NCI-H226
COLO 205 = test system: COLO 205
LOX IMVI = test system: LOX IMVI
HOP-62 = test system: HOP-62
OVCAR-8 = test system: OVCAR-8
MCF7 = test system: MCF7
CAKI-1 = test system: CAKI-1
SW-620 = test system: SW-620
TK-10 = test system: TK-10
RXF 393 = test system: RXF 393
IGROV-1 = test system: IGROV-1
Malme-3M = test system: Malme-3M
SNB-19 = test system: SNB-19
OVCAR-5 = test system: OVCAR-5
SK-MEL-5 = test system: SK-MEL-5
DU-145 = test system: DU-145
SR = test system: SR
BT-549 = test system: BT-549
PC-3 = test system: PC-3
OVCAR-3 = test system: OVCAR-3
OVCAR-4 = test system: OVCAR-4
HCT-15 = test system: HCT-15
M14 = test system: M14
ACHN = test system: ACHN
EKVX = test system: EKVX
UO-31 = test system: UO-31
NCI-H460 = test system: NCI-H460
SF-539 = test system: SF-539
U-251 = test system: U-251
MDA-MB-435 = test system: MDA-MB-435
HT-29 = test system: HT-29
786-0 = test system: 786-0
MDA-N = test system: MDA-N
T47D = test system: T47D
SK-MEL-2 = test system: SK-MEL-2
SK-OV-3 = test system: SK-OV-3
UACC-257 = test system: UACC-257
NCI-H23 = test system: NCI-H23
SNB-75 = test system: SNB-75
NCI-H522 = test system: NCI-H522
A498 = test system: A498
SK-MEL-28 = test system: SK-MEL-28
SN12C = test system: SN12C
HCC 2998 = test system: HCC 2998
HOP-92 = test system: HOP-92
SF-295 = test system: SF-295
SF-268 = test system: SF-268
MDA-MB-231 = test system: MDA-MB-231
CCRF-CEM = test system: CCRF-CEM
HL-60 = test system: HL-60
K562 = test system: K562
MOLT-4 = test system: MOLT-4

With `O=C(O)c1ccccc1-c1ccccc1C(=O)Nc1ccc2c(c1)Cc1ccccc1-2` the GI50 (HCT-116) was 18 µM (inactive), the GI50 (UACC-62) was 16.7 µM (inactive) and the GI50 (KM12) was 32.4 µM (inactive). The GI50 (RPMI-8226) was 23.4 µM (inactive), the GI50 (A549) was 29.2 µM (inactive) and the GI50 (Hs-578T) was 48.5 µM (inactive). The GI50 (NCI/ADR-RES) was 45 µM (inactive), the GI50 (NCI-H226) was 67.6 µM (inactive) and the GI50 (COLO 205) was 17.2 µM (inactive). The GI50 (LOX IMVI) was 22.5 µM (inactive), the GI50 (HOP-62) was 58.6 µM (inactive) and the GI50 (OVCAR-8) was 43.6 µM (inactive). For the same compound, the GI50 (MCF7) was 28.1 µM (inactive), the GI50 (CAKI-1) was 51.9 µM (inactive) and the GI50 (SW-620) was 31.8 µM (inactive). For the same compound, the GI50 (TK-10) was 45.1 µM (inactive), the GI50 (RXF 393) was 46.7 µM (inactive) and the GI50 (IGROV-1) was 49.3 µM (inactive). The GI50 (Malme-3M) was 42.5 µM (inactive), the GI50 (SNB-19) was 36.1 µM (inactive) and the GI50 (OVCAR-5) was 21.9 µM (inactive). The GI50 (SK-MEL-5) was 15.5 µM (inactive), the GI50 (DU-145) was 38.8 µM (inactive) and the GI50 (SR) was 28.4 µM (inactive). The GI50 (BT-549) was 29.9 µM (inactive), the GI50 (PC-3) was 41.1 µM (inactive) and the GI50 (OVCAR-3) was 25.3 µM (inactive). For the same compound, the GI50 (OVCAR-4) was 60.1 µM (inactive), the GI50 (HCT-15) was 20.4 µM and the GI50 (M14) was 21.6 µM (inactive). The GI50 (ACHN) was 30.3 µM (inactive), the GI50 (EKVX) was 22.1 µM (inactive) and the GI50 (UO-31) was 30 µM (inactive). For the same compound, the GI50 (NCI-H460) was 19.2 µM (inactive), the GI50 (SF-539) was 21.9 µM (inactive) and the GI50 (U-251) was 28.6 µM (inactive). For the same compound, the GI50 (MDA-MB-435) was 41.9 µM (inactive), the GI50 (HT-29) was 25.5 µM (inactive) and the GI50 (786-0) was 34.7 µM (inactive). The GI50 (MDA-N) was 27.4 µM (inactive), the GI50 (T47D) was 26.3 µM (inactive) and the GI50 (SK-MEL-2) was 22.6 µM (inactive). The GI50 (SK-OV-3) was 59.4 µM (inactive), the GI50 (UACC-257) was 28.3 µM (inactive) and the GI50 (NCI-H23) was 18 µM (inactive). The GI50 (SNB-75) was 68.4 µM (inactive), the GI50 (NCI-H522) was 21.3 µM (inactive) and the GI50 (A498) was 19.4 µM (inactive). For the same compound, the GI50 (SK-MEL-28) was 40.8 µM (inactive), the GI50 (SN12C) was 29.3 µM (inactive) and the GI50 (HCC 2998) was 17.8 µM (inactive). The GI50 (HOP-92) was 46.8 µM (inactive), the GI50 (SF-295) was 39.1 µM (inactive) and the GI50 (SF-268) was 43.1 µM (inactive). For the same compound, the GI50 (MDA-MB-231) was 60.5 µM (inactive).
In the case of `O=C1CC(=O)NC(NNS(=O)(=O)c2ccc(Cl)cc2)=N1`, the GI50 (HCT-116) is reported as > 100 µM (inactive), the GI50 (UACC-62) is reported as > 100 µM (inactive) and the GI50 (KM12) is reported as > 100 µM (inactive). For the same compound, the GI50 (RPMI-8226) was > 100 µM (inactive), the GI50 (A549) was > 100 µM (inactive) and the GI50 (Hs-578T) was > 100 µM (inactive). For the same compound, the GI50 (NCI/ADR-RES) was > 100 µM (inactive), the GI50 (NCI-H226) was > 100 µM (inactive) and the GI50 (COLO 205) was > 100 µM (inactive). For the same compound, the GI50 (HOP-62) was > 100 µM (inactive), the GI50 (OVCAR-8) was > 100 µM (inactive) and the GI50 (MCF7) was > 100 µM (inactive). The GI50 (CAKI-1) was > 100 µM (inactive), the GI50 (SW-620) was > 100 µM (inactive) and the GI50 (TK-10) was > 100 µM (inactive). The GI50 (RXF 393) was > 100 µM (inactive), the GI50 (IGROV-1) was > 100 µM (inactive) and the GI50 (Malme-3M) was > 100 µM (inactive). For the same compound, the GI50 (SNB-19) was > 100 µM (inactive), the GI50 (OVCAR-5) was > 100 µM (inactive) and the GI50 (CCRF-CEM) was 63.1 µM (inactive). For the same compound, the GI50 (SK-MEL-5) was > 100 µM (inactive), the GI50 (HL-60) was 70.8 µM (inactive) and the GI50 (DU-145) was > 100 µM (inactive). The GI50 (SR) was > 100 µM (inactive), the GI50 (BT-549) was > 100 µM (inactive) and the GI50 (PC-3) was > 100 µM (inactive). The GI50 (OVCAR-3) was > 100 µM (inactive), the GI50 (K562) was > 100 µM (inactive) and the GI50 (OVCAR-4) was > 100 µM (inactive). For the same compound, the GI50 (HCT-15) was > 100 µM, the GI50 (M14) was > 100 µM (inactive) and the GI50 (ACHN) was > 100 µM (inactive). The GI50 (UO-31) was > 100 µM (inactive), the GI50 (NCI-H460) was > 100 µM (inactive) and the GI50 (SF-539) was > 100 µM (inactive). The GI50 (U-251) was > 100 µM (inactive), the GI50 (MDA-MB-435) was > 100 µM (inactive) and the GI50 (HT-29) was > 100 µM (inactive). The GI50 (786-0) was > 100 µM (inactive), the GI50 (MDA-N) was > 100 µM (inactive) and the GI50 (T47D) was > 100 µM (inactive). For the same compound, the GI50 (SK-MEL-2) was > 100 µM (inactive), the GI50 (SK-OV-3) was 58.5 µM (inactive) and the GI50 (UACC-257) was > 100 µM (inactive). For the same compound, the GI50 (NCI-H23) was > 100 µM (inactive), the GI50 (SNB-75) was > 100 µM (inactive) and the GI50 (NCI-H522) was > 100 µM (inactive). The GI50 (A498) was > 100 µM (inactive), the GI50 (SK-MEL-28) was > 100 µM (inactive) and the GI50 (SN12C) was > 100 µM (inactive). For the same compound, the GI50 (HCC 2998) was > 100 µM (inactive), the GI50 (HOP-92) was > 100 µM (inactive) and the GI50 (SF-295) was > 100 µM (inactive). For the same compound, the GI50 (SF-268) was > 100 µM (inactive), the GI50 (MOLT-4) was > 100 µM (inactive) and the GI50 (MDA-MB-231) was > 100 µM (inactive).
